Experimental data: US5668161A, “Substituted thiazoles for the treatment of inflammation” (G.D. Searle & Co., priority 1996, dated 1997)

Experiments:
carrageenan foot edema = test: Rat Carrageenan Foot Pad Edema Test; format: in vivo, rat (Male Sprague-Dawley); settings: oral, 3 hours after carrageenan, read-out: RAT PAW EDEMA % Inhibition; for inhibition at 20 mg/kg: @ 20 mg/kg body weight
Description: Male Sprague-Dawley rats were selected in each group so that the average body weight was as close as possible. Rats were fasted with free access to water for over sixteen hours prior to the test. […] One hour later a subplantar injection of 0.1 mL of 1% solution of carrageenan/sterile 0.9% saline was administered and the volume of the injected foot was measured with a displacement plethysmometer connected to a pressure transducer with a digital indicator. Three hours after the injection of the carrageenan, the volume of the foot was again measured. […] Rat Carrageenan-induced Analgesia Test

murine COX-II = molecular target: T1, murine COX-II (Mus musculus, UniProt Q05769); test: biochemical
T1 sequence (Q05769 18-604): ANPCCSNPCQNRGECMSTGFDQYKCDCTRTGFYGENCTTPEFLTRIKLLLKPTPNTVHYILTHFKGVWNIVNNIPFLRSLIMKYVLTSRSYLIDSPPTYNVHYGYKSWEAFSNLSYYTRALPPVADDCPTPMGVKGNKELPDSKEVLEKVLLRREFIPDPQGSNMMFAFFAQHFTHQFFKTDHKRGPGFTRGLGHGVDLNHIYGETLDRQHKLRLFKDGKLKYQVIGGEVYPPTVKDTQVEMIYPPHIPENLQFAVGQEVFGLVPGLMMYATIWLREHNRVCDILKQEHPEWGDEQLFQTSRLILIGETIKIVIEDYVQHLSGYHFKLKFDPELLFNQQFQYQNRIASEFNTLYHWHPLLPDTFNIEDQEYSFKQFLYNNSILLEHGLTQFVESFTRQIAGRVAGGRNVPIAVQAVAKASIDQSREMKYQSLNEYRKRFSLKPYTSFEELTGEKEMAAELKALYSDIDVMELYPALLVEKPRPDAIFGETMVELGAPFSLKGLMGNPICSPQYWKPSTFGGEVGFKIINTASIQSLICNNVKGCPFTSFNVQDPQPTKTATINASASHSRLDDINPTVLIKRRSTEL

murine COX-I = molecular target: T2, murine COX-I (Mus musculus, UniProt P22437); test: COX I activity in vitro, murine (PGE2 by ELISA)
T2 sequence (P22437 27-602): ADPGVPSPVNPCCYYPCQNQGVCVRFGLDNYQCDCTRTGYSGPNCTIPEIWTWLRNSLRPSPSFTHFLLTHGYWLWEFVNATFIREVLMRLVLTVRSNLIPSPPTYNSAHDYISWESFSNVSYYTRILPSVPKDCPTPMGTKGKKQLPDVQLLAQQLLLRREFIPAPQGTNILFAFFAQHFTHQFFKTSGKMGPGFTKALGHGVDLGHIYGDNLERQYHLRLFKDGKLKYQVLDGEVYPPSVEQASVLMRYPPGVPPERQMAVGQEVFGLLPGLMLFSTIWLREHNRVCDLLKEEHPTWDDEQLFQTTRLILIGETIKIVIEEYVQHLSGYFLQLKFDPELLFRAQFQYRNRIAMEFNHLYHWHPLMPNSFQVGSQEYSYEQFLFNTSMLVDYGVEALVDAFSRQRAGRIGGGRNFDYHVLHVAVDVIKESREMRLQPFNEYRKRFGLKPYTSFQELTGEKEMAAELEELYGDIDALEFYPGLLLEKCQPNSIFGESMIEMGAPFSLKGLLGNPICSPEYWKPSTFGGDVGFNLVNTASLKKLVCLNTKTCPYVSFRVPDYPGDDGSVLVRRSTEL

Compound	IC50 (murine COX-II)	IC50 (murine COX-I)	inhibition at 20 mg/kg (carrageenan foot edema)	inhibition at 10 mg/kg (carrageenan foot edema)
CS(=O)(=O)c1ccc(-c2sc(-c3ccncc3)nc2-c2ccc(F)cc2)cc1 [Example 8, 4-(4-Fluorophenyl)-5-(4-methylsulfonylphenyl)-2-(4-pyridyl)thiazole]	200 nM	> 100000 nM	12%	–
CS(=O)(=O)c1ccc(-c2sc(CS(=O)(=O)c3cccs3)nc2-c2ccc(F)cc2)cc1 [Example 13]	1200 nM	> 30000 nM	–	–
CS(=O)(=O)c1ccc(-c2scnc2-c2ccc(F)cc2)cc1 [Example 22, 4-(4-Fluorophenyl)-5-(4-methylsulfonylphenyl)thiazole]	11200 nM	> 100000 nM	–	–
CS(=O)(=O)c1ccc(-c2sc(-c3cccs3)nc2-c2ccc(F)cc2)cc1 [Example 24, 4-(4-Fluorophenyl)-5-(4-methylsulfonylphenyl)-2-(2-thienyl)thiazole]	< 100 nM	> 10000 nM	–	20%
CS(=O)(=O)c1ccc(-c2sc(-c3cccnc3)nc2-c2ccc(F)cc2)cc1 [Example 26, 4-(4-Fluorophenyl)-5-(4-methylsulfonylphenyl)-2-(3-pyridyl)thiazole]	–	> 100000 nM	–	–
CS(=O)(=O)c1ccc(-c2sc(-c3ccccc3Cl)nc2-c2ccccc2F)cc1 [Example 35, 2-(2-Chlorophenyl)-4-(2-fluorophenyl)-5-(4-methylsulfonylphenyl)thiazole]	–	> 100000 nM	16%	–
CS(=O)(=O)c1ccc(-c2sc(COc3cccc(Cl)c3)nc2-c2ccc(F)cc2)cc1 [Example 37, 2-((3-Chlorophenoxy)methyl)-4-(4-fluorophenyl)-5-(4-methylsulfonylphenyl)thiazole]	< 100 nM	> 100000 nM	9%	–
Cc1nc(-c2nc(-c3ccc(F)cc3)c(-c3ccc(S(C)(=O)=O)cc3)s2)cs1 [Example 39, 4-(4-Fluorophenyl)-5-[4-(methylsulfonyl)phenyl]-2-(2-methyl-4-thiazolyl)thiazole]	300 nM	> 10000 nM	19%	–
CS(=O)(=O)c1ccc(-c2sc(-c3ccccc3)nc2-c2ccc(F)cc2)cc1 [Example 45, 4-(4-Fluorophenyl)-5-(4-methylsulfonylphenyl)-2-phenylthiazole]	< 100 nM	> 100000 nM	–	19%
CCCCCCNc1nc(-c2ccc(F)cc2)c(-c2ccc(S(C)(=O)=O)cc2)s1 [Example 46, 4-(4-Fluorophenyl)-2-n-hexylamino-5-(4-methylsulfonylphenyl)thiazole]	< 100 nM	1400 nM	–	25%
CNc1nc(-c2ccc(F)cc2)c(-c2ccc(S(C)(=O)=O)cc2)s1 [Example 48, 4-(4-Fluorophenyl)-5-(4-methylsulfonylphenyl)-2-methylaminothiazole]	300 nM	> 10000 nM	–	15%
COc1ccc(-c2nc(-c3ccc(F)cc3)c(-c3ccc(S(C)(=O)=O)cc3)s2)cc1 [Example 49, 4-(4-Fluorophenyl)-5-(4-methylsulfonylphenyl)-2-(4-methoxyphenyl)thiazole]	300 nM	> 10000 nM	–	6%
CCNc1nc(-c2ccc(F)cc2)c(-c2ccc(S(C)(=O)=O)cc2)s1 [Example 50, 2-Ethylamino-4-(4-fluorophenyl)-5-(4-methylsulfonylphenyl)-thiazole]	300 nM	> 10000 nM	–	11%
CCOC(=O)c1ccc(Nc2nc(-c3ccc(F)cc3)c(-c3ccc(S(C)(=O)=O)cc3)s2)cc1 [Example 55, Ethyl [4-[4-(4-fluorophenyl)-5-(4-methylsulfonylphenyl)-2-thiazolyl]amino]benzoate]	3500 nM	> 10000 nM	–	–

Further lines, with some results ahead:

IC50 (murine COX-II)	IC50 (murine COX-I)	Compound	inhibition at 20 mg/kg (carrageenan foot edema)	inhibition at 10 mg/kg (carrageenan foot edema)
300 nM	> 10000 nM	CCOC(=O)c1nc(-c2ccc(F)cc2)c(-c2ccc(S(C)(=O)=O)cc2)s1 [Example 17, Ethyl [4-(4-fluorophenyl)-5-(4-methylsulfonylphenyl)-2-thiazolyl]carboxylate]	–	–
150 nM	5400 nM	CC(C)(C)c1nc(-c2ccc(F)cc2)c(-c2ccc(S(C)(=O)=O)cc2)s1 [Example 18, 2-(tert-Butyl)-4-(4-fluorophenyl)-5-(4-methylsulfonylphenyl)thiazole]	–	–
–	400 nM	CS(=O)(=O)c1ccc(-c2sc(Cc3ccccc3)nc2-c2ccc(F)cc2)cc1 [Example 19, 2-Benzyl-4-(4-fluorophenyl)-5-(4-methylsulfonylphenyl)thiazole]	–	–
100 nM	> 10000 nM	Cc1nc(-c2ccc(S(C)(=O)=O)cc2)c(-c2ccc(F)cc2)s1 [Example 20, 5-(4-Fluorophenyl)-4-(4-methylsulfonylphenyl)-2-methylthiazole]	48%	–
200 nM	> 10000 nM	CS(=O)(=O)c1ccc(-c2sc(CC#N)nc2-c2ccc(F)cc2)cc1 [Example 27, 2-(Cyanomethyl)-4-(4-fluorophenyl)-5-(4-methylsulfonylphenyl)thiazole]	–	–
< 100 nM	> 10000 nM	Cc1nc(-c2ccc(F)cc2)c(-c2ccc(S(C)(=O)=O)cc2)s1 [Example 28, 4-(4-Fluorophenyl)-5-(4-methylsulfonylphenyl)-2-methylthiazole]	–	–
300 nM	900 nM	CS(=O)(=O)c1ccc(-c2sc(N3CCCCC3)nc2-c2ccc(F)cc2)cc1 [Example 30, 4-(4-Fluorophenyl)-5-(4-methylsulfonylphenyl)-2-(1-piperidinyl)thiazole]	–	–
100 nM	> 10000 nM	CCCNc1nc(-c2ccc(F)cc2)c(-c2ccc(S(C)(=O)=O)cc2)s1 [Example 31, 4-(4-Fluorophenyl)-5-(4-methylsulfonylphenyl)-2-(1-propylamino)thiazole]	–	27.5%
< 100 nM	1900 nM	CCc1nc(-c2ccc(F)cc2)c(-c2ccc(S(C)(=O)=O)cc2)s1 [Example 42, 2-Ethyl-4-(4-fluorophenyl)-5-(4-methylsulfonylphenyl)thiazole]	–	–
1300 nM	100000 nM	CS(=O)(=O)c1ccc(-c2sc(CCCc3ccccc3)nc2-c2ccc(F)cc2)cc1 [Example 43, 4-(4-Fluorophenyl)-5-(4-methylsulfonylphenyl)-2-(3-phenylpropyl)thiazole]	–	–
–	1700 nM	CS(=O)(=O)c1ccc(-c2sc(CCc3ccccc3)nc2-c2ccc(F)cc2)cc1 [Example 44, 4-(4-Fluorophenyl)-5-(4-methylsulfonylphenyl)-2-(2-phenylethyl)thiazole]	–	–
< 100 nM	1400 nM	CCCCNc1nc(-c2ccc(F)cc2)c(-c2ccc(S(C)(=O)=O)cc2)s1 [Example 47, 2-Butylamino-4-(4-fluorophenyl)-5-(4-methylsulfonylphenyl)thiazole]	12%	–
300 nM	11900 nM	CC(C)(C)Nc1nc(-c2ccc(F)cc2)c(-c2ccc(S(C)(=O)=O)cc2)s1 [Example 51, 2-tert-Butylamino-4-(4-fluorophenyl)-5-(4-methylsulfonylphenyl)thiazole]	–	14%
900 nM	200 nM	CS(=O)(=O)c1ccc(-c2sc(Nc3ccc(C#N)cc3)nc2-c2ccc(F)cc2)cc1 [Example 53, 2-(4-Cyanophenylamino)-4-(4-fluorophenyl)-5-(4-methylsulfonylphenyl)-thiazole]	–	–
1300 nM	1100 nM	CCOC(=O)c1cccc(Nc2nc(-c3ccc(F)cc3)c(-c3ccc(S(C)(=O)=O)cc3)s2)c1 [Example 54, Ethyl-[3-[4-(4-fluorophenyl)-5-(4-methylsulfonylphenyl)-2-thiazolyl]amino]benzoate]	–	–
